Literature values as cited in patent publication US8158685B2, “Method for bone growth” (priority 2004, dated 2012).

Columns and labels:
bone graft = details: fluoride alone added to bone graft material
spine = details: immediate-release form, 75 mg/day with calcium carbonate over 4 years

Compound | improvement/increase in bone density (bone graft) [%] | bone density increase (spine) [%] | effect on spinal fractures (spine)
F [fluoride] | 20 |  | 
[F-].[Na+] [sodium fluoride] |  | 35 | failed to reduce spinal fractures
